# Measured values from US9938299B2, “Glycosidase inhibitors and uses thereof” (MERCK SHARP & DOHME CORP., priority 2012, dated 2018).
# Target: T1, human O-GlcNAcase (Homo sapiens, UniProt O60502)
# T1 sequence (O60502 1-916): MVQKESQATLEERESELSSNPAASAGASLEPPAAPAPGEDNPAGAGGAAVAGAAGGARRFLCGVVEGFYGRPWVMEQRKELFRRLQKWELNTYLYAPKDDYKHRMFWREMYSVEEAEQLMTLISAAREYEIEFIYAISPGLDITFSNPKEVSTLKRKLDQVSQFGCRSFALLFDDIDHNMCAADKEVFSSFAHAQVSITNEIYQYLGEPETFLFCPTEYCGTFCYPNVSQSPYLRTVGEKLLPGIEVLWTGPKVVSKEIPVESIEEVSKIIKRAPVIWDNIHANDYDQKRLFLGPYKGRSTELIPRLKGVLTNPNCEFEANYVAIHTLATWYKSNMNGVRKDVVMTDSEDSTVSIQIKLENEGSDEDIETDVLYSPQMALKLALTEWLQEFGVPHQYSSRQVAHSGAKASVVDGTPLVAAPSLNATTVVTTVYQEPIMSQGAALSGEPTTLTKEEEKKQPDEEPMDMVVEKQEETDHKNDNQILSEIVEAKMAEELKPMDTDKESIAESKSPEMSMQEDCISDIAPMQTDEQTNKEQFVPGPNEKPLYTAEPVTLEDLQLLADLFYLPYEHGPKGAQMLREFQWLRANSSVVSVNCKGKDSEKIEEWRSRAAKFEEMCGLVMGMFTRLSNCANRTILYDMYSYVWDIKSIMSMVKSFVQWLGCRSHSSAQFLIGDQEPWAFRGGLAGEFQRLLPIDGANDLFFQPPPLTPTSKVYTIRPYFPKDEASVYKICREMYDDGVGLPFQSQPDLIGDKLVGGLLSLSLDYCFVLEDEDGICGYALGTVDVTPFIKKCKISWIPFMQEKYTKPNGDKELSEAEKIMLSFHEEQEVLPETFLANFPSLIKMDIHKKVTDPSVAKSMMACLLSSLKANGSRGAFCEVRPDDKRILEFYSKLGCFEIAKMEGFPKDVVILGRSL
# Assay: Determination of KI values for inhibition of O-GlcNAcase activity (fluorogenic 4-methylumbelliferyl GlcNAc substrate)
# Type: biochemical
# Settings: purified human O-GlcNAcase 0.7 nM, 2 mM substrate, pH 7.0, room temperature; Cheng-Prusoff; read-out: Ki
# Procedure: Assay for Determination of […] for Inhibition of O-GlcNAcase Activity
# Experimental procedure for kinetic analyses: Enzymatic reactions were carried out in a reaction containing 50 mM NaH2PO4, 100 mM NaCl and 0.1% BSA (pH 7.0) using 2 mM 4-Methylumbelliferyl N-acetyl-β-D-glucosaminide dihydrate (Sigma M2133) dissolved in ddH2O, as a substrate. The amount of purified human O-GlcNAcase enzyme used in the reaction was 0.7 nM. Test compound of varying concentrations was added to the enzyme prior to initiation of the reaction. The reaction was performed at room temperature in a 96-well plate and was initiated with the addition of substrate. […] The slope of product production was determined for each concentration of compound tested and plotted, using standard curve fitting algorithms for sigmoidal dose response curves. The values for a four parameter logistic curve fit of the data were determined.
row,SMILES,Ki [nM]
1,"COc1ccc(CC[C@@H]([C@H]2O[C@@H]3SC(N(C)C)=N[C@@H]3[C@@H](O)[C@@H]2O)C(F)(F)F)cc1 (single isomer, unassigned) [Example 2]",1.6
2,"COc1ccc(C/C=C(\[C@H]2O[C@@H]3SC(N(C)C)=N[C@@H]3[C@@H](O)[C@@H]2O)C(F)(F)F)cc1 (single isomer, unassigned) [Example 3]",9.5
3,"COc1ccc(C/C=C(/[C@H]2O[C@@H]3SC(N(C)C)=N[C@@H]3[C@@H](O)[C@@H]2O)C(F)(F)F)cc1 (single isomer, unassigned) [Example 4]",16.2
4,"CNC1=N[C@@H]2[C@@H](O)[C@H](O)[C@@H]([C@H](O)CCc3ccc(OC)cc3)O[C@@H]2S1 (single isomer, unassigned) [Example 6]",139
5,"CNC1=N[C@@H]2[C@@H](O)[C@H](O)[C@@H]([C@@H](O)CCc3ccc(OC)cc3)O[C@@H]2S1 (single isomer, unassigned) [Example 7]",1.2
6,"CNC1=N[C@@H]2[C@@H](O)[C@H](O)[C@@H]([C@](O)(CCc3ccc(OC)cc3)C(F)(F)F)O[C@@H]2S1 (single isomer, unassigned) [Example 8]",0.95
7,"CNC1=N[C@@H]2[C@@H](O)[C@H](O)[C@@H]([C@@](O)(CCc3ccc(OC)cc3)C(F)(F)F)O[C@@H]2S1 (single isomer, unassigned) [Example 9]",24
8,"CN(C)C1=N[C@@H]2[C@@H](O)[C@H](O)[C@@H](C(O)(CCc3ccccc3)C(F)(F)F)O[C@@H]2S1 (stereo in doubt) [Example 27, (3aR,5S,6S,7R,7aR)-2-(dimethylamino)-5-((S)-1,1,1-trifluoro-2-hydroxy-4-phenylbutan-2-yl)-5,6,7,7a-tetrahydro-3aH-pyrano[3,2-d]thiazole-6,7-diol]",0.92
9,"CN(C)C1=N[C@@H]2[C@@H](O)[C@H](O)[C@@H]([C@@](O)(CCc3ccccc3)C(F)(F)F)O[C@@H]2S1 (stereo in doubt) [Example 28, (3aR,5S,6S,7R,7aR)-2-(dimethylamino)-5-(1,1,1-trifluoro-2-hydroxy-4-phenylbutan-2-yl)-5,6,7,7a-tetrahydro-3aH-pyrano[3,2-d]thiazole-6,7-diol]",316
10,"COc1ccc(CCC(O)([C@H]2O[C@@H]3SC(N(C)C)=N[C@@H]3[C@@H](O)[C@@H]2O)C(F)(F)F)cc1 (stereo in doubt) [Example 29, (3aR,5S,6S,7R,7aR)-2-(dimethylamino)-5-((S)-1,1,1-trifluoro-2-hydroxy-4-(4-methoxyphenyl)butan-2-yl)-5,6,7,7a-tetrahydro-3aH-pyrano[3,2-d]thiazole-6,7-diol]",1.1
11,"COc1ccc(CC[C@H]([C@H]2O[C@@H]3SC(N(C)C)=N[C@@H]3[C@@H](O)[C@@H]2O)C(F)(F)F)cc1 [Example 1, (3aR,5R,6S,7R,7aR)-2-(dimethylamino)-5-((R)-1,1,1-trifluoro-4-(4-methoxyphenyl)butan-2-yI)-5,6,7,7a-tetrahydro-3aH-pyrano[3,2-d]thiazole-6,7-diol]",109
12,"CCOC(=O)/C=C/[C@H]1O[C@@H]2SC(NC)=N[C@@H]2[C@@H](O)[C@@H]1O [Example 5, (E)-ethyl 3-((3aR,5R,6S,7R,7aR)-6,7-dihydroxy-2-(methylamino)-5,6,7,7a-tetrahydro-3aH-pyrano[3,2-d]thiazol-5-yl)acrylate]",72
13,"CNC1=N[C@@H]2[C@@H](O)[C@H](O)[C@@H](C(F)(F)CCc3ccc(OC)cc3)O[C@@H]2S1 [Example 10, (3aR,5S,6S,7R,7aR)-5-(1,1-difluoro-3-(4-methoxyphenyl)propyl)-2-(methylamino)-5,6,7,7a-tetrahydro-3aH-pyrano[3,2-d]thiazole-6,7-diol]",69
14,"CN(C)C1=N[C@@H]2[C@@H](O)[C@H](O)[C@@H](CC#N)O[C@@H]2S1 [Example 11, 2-((3aR,5R,6S,7R,7aR)-2-(dimethylamino)-6,7-dihydroxy-5,6,7,7a-tetrahydro-3aH-pyrano[3,2-d]thiazol-5-yl)acetonitrile]",5.9
15,"CNC1=N[C@@H]2[C@@H](O)[C@H](O)[C@@H](CCC(=O)OC)O[C@@H]2S1 [Example 12, methyl 3-((3aR,5R,6S,7R,7aR)-6,7-dihydroxy-2-(methylamino)-5,6,7,7a-tetrahydro-3aH-pyrano[3,2-d]thiazol-5-yl)propanoate]",22
16,"CNC(=O)CC[C@H]1O[C@@H]2SC(N(C)C)=N[C@@H]2[C@@H](O)[C@@H]1O [Example 13, 3-((3aR,5R,6S,7R,7aR)-2-(dimethylamino)-6,7-dihydroxy-5,6,7,7a-tetrahydro-3aH-pyrano[3,2-d]thiazol-5-yl)-N-methylpropanamide]",100
17,"C=C(C)[C@H]1O[C@@H]2SC(NC)=N[C@@H]2[C@@H](O)[C@@H]1O [Example 14, (3aR,5R,6S,7R,7aR)-2-(methylamino)-5-(prop-1-en-2-yl)-5,6,7,7a-tetrahydro-3aH-pyrano[3,2-d]thiazole-6,7-diol 2,2,2-trifluoroacetate]",10.1
18,"C=C([C@H]1O[C@@H]2SC(NC)=N[C@@H]2[C@@H](O)[C@@H]1O)C(F)(F)F [Example 15, (3aR,5R,6S,7R,7aR)-2-(methylamino)-5-(3,3,3-trifluoroprop-1-en-2-yl)-5,6,7,7a-tetrahydro-3aH-pyrano[3,2-d]thiazole-6,7-diol]",63
19,"C=C(C)[C@H]1O[C@@H]2SC(N(C)C)=N[C@@H]2[C@@H](O)[C@@H]1O [Example 16, (3aR,5R,6S,7R,7aR)-2-(dimethylamino)-5-(prop-1-en-2-yl)-5,6,7,7a-tetrahydro-3aH-pyrano[3,2-d]thiazole-6,7-diol]",21
20,"CNC1=N[C@@H]2[C@@H](O)[C@H](O)[C@@H]([C@@H](CCc3ccc(OC)cc3)C(F)(F)F)O[C@@H]2S1 [Example 17, (3aR,5R,65,7R,7aR)-2-(methylamino)-5-((R)-1,1,1-trifluoro-4-(4-methoxyphenyl)butan-2-yl)-5,6,7,7a-tetrahydro-3aH-pyrano[3,2-d]thiazole-6,7-diol]",139
21,"CNC1=N[C@@H]2[C@@H](O)[C@H](O)[C@@H]([C@H](CCc3ccc(OC)cc3)C(F)(F)F)O[C@@H]2S1 [Example 18, (3aR,5R,65,7R,7aR)-2-(methylamino)-5-(1,1,1-trifluoro-4-(4-methoxyphenyl)butan-2-yl)-5,6,7,7a-tetrahydro-3aH-pyrano[3,2-d]thiazole-6,7-diol]",1.1
22,"CN(C)C1=N[C@@H]2[C@@H](O)[C@H](O)[C@@H](C(=CCc3ccccc3)C(F)(F)F)O[C@@H]2S1 [Example 19, (3aR,5R,6S,7R,7aR)-2-(dimethylamino)-5-(1,1,1-trifluoro-4-phenylbut-2-en-2-yl)-5,6,7,7a-tetrahydro-3aH-pyrano[3,2-d]thiazole-6,7-diol]",20
23,"CN(C)C1=N[C@@H]2[C@@H](O)[C@H](O)[C@@H]([C@H](O)Cc3ccccc3)O[C@@H]2S1 [Example 20, (3aR,5R,6S,7R,7aR)-2-(dimethylamino)-5-((R)-1-hydroxy-2-phenylethyl)-5,6,7,7a-tetrahydro-3aH-pyrano[3,2-d]thiazole-6,7-diol]",736
24,"CN(C)C1=N[C@@H]2[C@@H](O)[C@H](O)[C@@H]([C@@H](O)Cc3ccccc3)O[C@@H]2S1 [Example 21, (3aR,5R,6S,7R,7aR)-2-(dimethylamino)-5-((S)-1-hydroxy-2-phenylethyl)-5,6,7,7a-tetrahydro-3aH-pyrano[3,2-d]thiazole-6,7-diol]",25.6
25,"COc1ccc(CC[C@@H](O)[C@H]2O[C@@H]3SC(N(C)C)=N[C@@H]3[C@@H](O)[C@@H]2O)cc1 [Example 22, (3aR,5R,6S,7R,7aR)-2-(dimethylamino)-5-((R)-1-hydroxy-3-(4-methoxyphenyl)propyl)-5,6,7,7a-tetrahydro-3aH-pyrano[3,2-d]thiazole-6,7-diol]",505
26,"COc1ccc(CC[C@H](O)[C@H]2O[C@@H]3SC(N(C)C)=N[C@@H]3[C@@H](O)[C@@H]2O)cc1 [Example 23, (3aR,5R,6S,7R,7aR)-2-(dimethylamino)-5-((S)-1-hydroxy-3-(4-methoxyphenyl)propyl)-5,6,7,7a-tetrahydro-3aH-pyrano[3,2-d]thiazole-6,7-diol]",6.4
